Source: article PMC4051119, “Bacterial actin MreB forms antiparallel double filaments” (eLife, 2014)
Where “and” joins values, the source holds several entries; their conditions need not be identical. Identical values can stand only once. Like-named read-outs stand apart in the source and are kept apart here.

Legend:
[1] = system: cell morphology; parameters: method as in earlier work; conditions: ref Iwai et al., 2002; Gitai et al., 2005; Bean et al., 2009; Takacs et al., 2010; cited from earlier work
[2] = target: T1, ΔCcMreBdh (Caulobacter vibrioides, UniProt A0A0H3C7V4, F102S/V103G); assay: Isothermal titration calorimetry of nucleotides and MP265 binding to MreB; parameters: species or system Caulobacter crescentus; conditions: ITC
T1 construct: added initiator Met (M before I9) (N); made in house; host or cells: E. coli C41(DE3) (printed for the sister construct ΔCcMreBh)
Protocol: […] Samples were stored by the instrument in 96-well microtitre plates at 5°C prior to loading and performing the ITC titrations. […] Heat from the pre-injection was not used during fitting. Data were analysed manually in the Origin software package provided by the manufacturer and fit to a single set of binding sites model. […] The small endothermic heats of each injection in these experiments were fitted to a simple linear function that was subsequently subtracted from the equivalent integrated heats of the experiment when protein was present.

[3] = 25°C, ligand titrated into ΔCcMreBdh alone
[4] = 25°C, ligand titrated into ΔCcMreBdh alone, read-out: Kd

T1 sequence (A0A0H3C7V4 9-347 F102S/V103G): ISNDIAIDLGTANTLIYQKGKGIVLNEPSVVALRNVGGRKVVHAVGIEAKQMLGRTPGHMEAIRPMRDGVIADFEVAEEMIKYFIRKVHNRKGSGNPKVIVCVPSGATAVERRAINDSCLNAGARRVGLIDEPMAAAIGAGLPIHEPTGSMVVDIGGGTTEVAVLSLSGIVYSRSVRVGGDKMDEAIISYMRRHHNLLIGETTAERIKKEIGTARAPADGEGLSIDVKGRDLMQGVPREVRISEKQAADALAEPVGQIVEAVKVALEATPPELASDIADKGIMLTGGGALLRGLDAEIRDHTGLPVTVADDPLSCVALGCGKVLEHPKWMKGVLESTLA

SMILES	effect on cell morphology [1]	ΔH [2, 3]	Kd [2, 4]	further results
N=C(N)SCc1ccc(Cl)c(Cl)c1 [A22, S-(3,4-dichlorobenzyl) isothiourea]	perturb cell morphology reminiscent of an MreB knock-out			
Nc1ncnc2c1ncn2[C@@H]1O[C@H](COP(=O)(O)OP(=O)(O)O)[C@@H](O)[C@H]1O [ADP]		-5.3 kcal/mol	~4 µM and 4 µM	
Nc1ncnc2c1ncn2[C@@H]1O[C@H](COP(=O)(O)OP(=O)(O)NP(=O)(O)O)[C@@H](O)[C@H]1O [AMPPNP]		-4.4 kcal/mol	~65 µM and 65 µM	
Nc1ncnc2c1ncn2[C@@H]1O[C@H](COP(=O)(O)OP(=O)(O)OP(=O)(O)O)[C@@H](O)[C@H]1O [ATP]		-6.0 kcal/mol	~1 µM and 1 µM	
Nc1ncnc2c1ncn2[C@@H]1O[C@H](CO[P@](=O)(O)O[P@](=O)(O)O[P@@](=O)(O)S)[C@@H](O)[C@H]1O [ATPγS]		-7.7 kcal/mol		Kd ([2]; Kd, 25°C, ligand titrated into ΔCcMreBdh alone): ~4.6 µM and 4.5 µM
N=C(N)SCc1ccc(Cl)cc1 [MP265]	perturb cell morphology reminiscent of an MreB knock-out		~27 µM and 26 µM and 27 µM	Kd ([2]; 15°C, in the presence of 0.5 mM ADP, data not shown, read-out: affinity (Kd)): 0.6 µM; Kd ([2]; 15°C, in the presence of 0.5 mM AMPPNP, data not shown, read-out: affinity (Kd)): 0.7 µM; Kd ([2]; 15°C, ΔCcMreBdh alone, data not shown, read-out: affinity (Kd)): 19 µM; ΔH ([2]; 25°C, in the presence of 0.5 mM ADP): -12 kcal/mol; Kd ([2]; 25°C, in the presence of 0.5 mM ADP, read-out: Kd): 1.3 µM; ΔH ([2]; 25°C, in the presence of 0.5 mM AMPPNP): -11 kcal/mol; Kd ([2]; 25°C, in the presence of 0.5 mM AMPPNP, read-out: Kd): 1.7 µM; increase of binding affinity in the presence of di- and trinucleotide phosphates ([2]; with nucleotide versus ΔCcMreBdh alone): 20–30 fold
